{"source": "patent US8242167B2", "about": "“Mannose derivatives for killing tumor cells” (University of Miami, priority 2006, dated 2012)", "key": {"[1]": {"test_system": "tumor cell lines", "test": "Toxicity survey of tumor cell lines under normoxic conditions", "assay_type": "cell-based", "details": "for toxicity to select tumor cell types: normoxia; for tumor cell lines undergoing significant cell death: 6 mM, normal oxygen tension", "procedure": "(§1) Cell types. The Δ^0 cells were isolated by treating osteosarcoma cell line 143B (wt) with ethidium bromide for prolonged periods, as previously described (9). Because the Δ^0 cells are uridine and pyruvate auxotrophs, they were grown in DMEM (GIBCO, USA) supplemented with 10% fetal calf serum, 50 μg/ml of uridine and 100 mM sodium pyruvate. The SKBR3 cell line was obtained from Dr. Joseph Rosenblatt's laboratory at the University of Miami. The pancreatic cancer cell lines 1420 and 1469, the ovarian cancer cell line SKOV3, the cervical cancer cell line HELA, and the osteosarcoma cell line 143B were purchased from ATCC. The non-small cell lung cancer and small cell lung cancer cell lines were derived from patients by Dr. Niramol Savaraj at the University of Miami. SKBR3 and SKOV3 cells were grown in McCoy's 5A medium; 1420, 1469 and 143B were grown in DMEM (GIBCO, USA); and HELA was grown in MEM (GIBCO, USA). The media was supplemented with 10% fetal bovine serum. All cells were grown under 5% CO2 and 37° C.\n(§2) Cytotoxicity assay. Cells were incubated for 24 hr at 37° C. in 5% CO2 at which time drug treatments began and continued for 72 hr. At this time, attached cells were trypsinized and combined with their respective culture media followed by centrifugation at 400 g for 5 min. The pellets were resuspended in 1 ml of Hanks solution and analyzed by Vi-Cell (Beckman Coulter, USA) cell viability analyzer."}, "[2]": {"test_system": "SKBR3 cells", "test": "Growth inhibitory and cytotoxicity assay in SKBR3 cells under normoxia", "assay_type": "cell-based, human", "details": "for cytotoxicity measured by trypan blue exclusion: SKBR3, 72 hrs, normal oxygen conditions; for reversal of 2-DG toxicity by added sugar: SKBR3, 1 mM sugar with increasing 2-DG, trypan blue exclusion", "procedure": "Cytotoxicity assay and Rapid DNA Content Analysis. Cells were incubated for 24 hr at 37° C. in 5% CO2 at which time drug treatments began and were continued for 72 hr. At this time, attached cells were trypsinized and combined with their respective culture media followed by centrifugation at 400 g for 5 min. Pellets containing the cells were either resuspended in 1.5 ml of a medium/trypan blue mixture for cytotoxicity assays or propidium iodide/hypotonic citrate staining solution for determining the nuclear DNA content and cell cycle by a Coulter XL flow cytometer. A minimum of 10,000 cells were analyzed to generate a DNA distribution histogram.\nas §2"}, "[3]": {"test_system": "fowl plague virus", "details": "chick embryo fibroblasts infected with fowl plague virus; cited from earlier work"}, "[4]": {"test_system": "SKBR3 cells", "test": "ATP quantification assay in SKBR3 cells", "assay_type": "cell-based, human", "details": "6 hours, 2-FDG vs. 2-DG", "procedure": "ATP quantitation assay. The ATP lite kit (Perkin Elmer) can be used to quantify levels of ATP. About 50 μL of cell lysis solution were added to 100 μL of cell suspension in a white-bottom 96-well plate. The plate was incubated at room temperature on a shaker (700 rpm) for five minutes. 50 μL of substrate solution was then added to the wells and shaken (700 rpm) for another five minutes at room temperature. The plate was then dark adapted for ten minutes and measured for luminescence.\nATP quantification assay. The ATP lite kit (Perkin Elmer) can be used to quantify levels of ATP. About […] of cell lysis solution were added to […] of cell suspension in a white-bottom 96-well plate. The plate was incubated at room temperature on a shaker (700 rpm) for five minutes. About […] solution were then added to the wells and shaken (700 rpm) for another five minutes at room temperature. The plate was then dark adapted for ten minutes and measured for luminescence. To normalize the reduction of ATP production to growth inhibition which results due to treatment with 2-DG or 2-FDG, parallel experiments were run to measure the total protein concentration using a microBCA protein detection kit (Pierce, Rockford, Ill.)."}, "[5]": {"test_system": "erbB2", "test": "Western blot of erbB2 in SKBR3 cells", "assay_type": "cell-based, human", "procedure": "(§3) Western Blot analysis. Cells were plated at 10^4 cell cm^−2 and grown under drug treatment for the indicated times. At the end of the treatment period, cells were collected and lysed with 1% SDS in 80 mM Tris-HCL (ph 7.4) buffer supplemented with a proteinase inhibitor cocktail. DNA was fragmented by sonication and protein concentrations were measured by microBCA protein assay kit (Pierce, USA). Samples were mixed with 2× Laemmli sample buffer (Bio-Rad, USA) and run on a SDS-polyacrylamide gel. Gels were transferred to nitrocellulose membranes (Amersham, USA) and probed with anti-KDEL (Stressgen, Canada) (for Grp78 and Grp94); polyclonal anti-CHOP/[…] (Santa Cruz, USA), polyclonal anti-erbB2 (DAKO, USA). Following probing, membranes were washed and incubated with an HRP conjugated secondary antibody. Chemiluminesence was detected by exposure to film. Where indicated, membranes were stripped with Stripping Buffer (Pierce, USA) and reprobed with anti-actin (Sigma, USA) primary antibody. To analyze conconavalin A (ConA) binding, the membranes were incubated with 0.2 μg/ml HRP-conjugated ConA, and chemiluminescence was detected as described."}, "[6]": {"test_system": "glycoproteins (ConA binding) in SKBR3 cells", "test": "HRP-conjugated ConA blot of SKBR3 cell extracts", "assay_type": "cell-based, human", "details": "SKBR3, 48 hr, 8 mM sugar analog", "procedure": "as §3"}, "[7]": {"test_system": "Grp78 and Grp94", "test": "Western blot of Grp78 and Grp94 (unfolded protein response) in SKBR3 cells under normoxia", "assay_type": "cell-based, human", "details": "for expression of chaperones Grp78 and Grp94: SKBR3, normoxia, 24 hrs, 8 mM sugar analog, tunicamycin 1 micro g/ml; for up-regulation of GRP 78 and 94, dose dependence: select tumor cells, normoxic conditions", "procedure": "as §3"}, "[8]": {"test_system": "SKBR3 cells", "test": "Lactic acid assay in SKBR3 cells", "assay_type": "cell-based, human", "details": "2 mM, 24 hr, 2-FDG vs. 2-DG", "procedure": "Lactic acid assay. Lactic acid was measured by adding 0.025 ml of deproteinated medium, from treated or non-treated cultures, to a reaction mixture containing 0.1 ml of lactic acid dehydrogenase (1000 units/ml), 2 ml of glycine buffer (glycine, 0.6 mol/L, and hydrazine, pH 9.2), and 1.66 mg/ml NAD. Deproteinization occurred by treating 0.5 ml of medium from test cultures with 1 ml of perchloric acid at 8% w/v, vortexing for 30 s, then incubating this mixture at 4° C. for 5 min, and centrifuging at 1500 g for 10 min. The supernatant was centrifuged three times more, and 0.025 ml of a final clear supernatant was used for lactic acid determinations. Formation of NADH was measured with a Beckman DUr 520 UV/vis spectrophotometer at 340 nm, which directly corresponds to lactic acid levels as determined by a lactate standard curve.\nLactic acid assay. Lactic acid was measured by adding 0.025 ml of deproteinated medium, from treated or non-treated cultures, to a reaction mixture containing 0.1 ml of lactic dehydrogenase (1000 units/ml), 2 ml of glycine buffer (glycine, 0.6 mol/L, and hydrazine, pH 9.2), and 1.66 mg/ml NAD. […] Formation of NADH was measured with a Beckman DUr 520 UV/vis spectrophotometer at 340 nm, which directly corresponds to lactic acid levels as determined by a lactate standard curve."}, "[9]": {"test_system": "SKBR3 cells", "test": "Cytotoxicity in SKBR3 cells under hypoxic conditions", "assay_type": "cell-based, human", "details": "2-FDG vs. 2-DG", "procedure": "as §2, with “Hypoxia. For studies in hypoxic conditions (Model C), cells were seeded and incubated for 24 hr at 37° C. and 5% CO2 as described below for direct cytotoxicity assays. After the 24 hr incubation, cells received drug treatment and were placed in a Pro-Ox in vitro chamber attached to a model 110 oxygen controller ([…] Bioinstruments Co. […] Cytotoxicity” for “Cytotoxicity”"}, "[10]": {"test_system": "CHOP/GADD154", "test": "Western blot of CHOP/GADD154 in SKBR3 cells", "assay_type": "cell-based, human", "details": "SKBR3, normoxia, 24 hrs; 8 mM sugar analog", "procedure": "as §3"}, "[11]": {"test_system": "Grp78 and Grp94", "test": "Western blot of Grp78 and Grp94 in models of hypoxia A, B & C", "assay_type": "cell-based", "procedure": "as §3\nThree in vitro models of hypoxia. We previously characterized three models of anaerobiosis as follows: Model A are tumor cells treated with 0.05 μg/ml of oligomycin (a mitochondrial inhibitor of ATP synthase); Model B are cells that are deficient in mitochondrial DNA and Model C are cells treated in an hypoxic (0.5% O^2) chamber (Reming Bioinstruments, Redfield, N.Y.)."}, "[12]": {"test_system": "1420, pancreatic cancer", "test": "Cytotoxicity under normoxia, 1420", "assay_type": "cell-based, human", "details": "1420; 1 mM sugar with increasing 2-DG; trypan blue exclusion", "procedure": "as §1, §2"}}}
{"molecule": "O=C[C@@H](Cl)[C@@H](O)[C@H](O)[C@H](O)CO", "note": "[2-CM, 2-deoxy-2-chloro-mannose]", "values": [{"measurement": "toxicity to select tumor cell types", "setting": "[1]", "value": "toxic to select tumor cell types growing under normoxia"}]}
{"molecule": "O=C[C@H](F)[C@@H](O)[C@H](O)[C@H](O)CO", "note": "[2-FDG, 2-deoxy-2-fluoro-glucose, reference compound]", "values": [{"measurement": "cytotoxicity measured by trypan blue exclusion", "setting": "[2]", "value": "is not"}, {"measurement": "rank order in growth inhibiting and killing SKBR3 cells", "setting": "[2]; normoxia", "value": "2-DG>2-FDM>>>2-FDG"}, {"measurement": "toxicity to SKBR3 cells grown under normoxia (FIG. 1)", "setting": "[2]; normoxia", "value": "neither of these agents caused toxicity"}, {"measurement": "order of potency to inhibit viral glycoprotein synthesis", "setting": "[3]", "value": "2-DG>2-FDM>2-FDG"}, {"measurement": "ATP depletion", "setting": "[4]", "value": "ATP depletion was more prominent"}, {"measurement": "tumor cell lines undergoing significant cell death", "setting": "[1]", "value": "not"}, {"measurement": "toxicity to select tumor cell types", "setting": "[1]", "value": "not"}, {"measurement": "toxicity to cell types that are sensitive to 2-DG", "setting": "[1]; normoxic conditions", "value": "shows no toxicity"}, {"measurement": "molecular weight of erbB2", "setting": "[5]", "value": "had no effect"}, {"measurement": "ConA binding of glycoproteins", "setting": "[6]", "value": "no reduction in ConA binding"}, {"measurement": "expression of chaperones Grp78 and Grp94", "setting": "[7]", "value": "does not increase the levels of these chaperones as much as 2-DG or 2-FDM"}, {"measurement": "up-regulation of GRP 78 and 94, dose dependence", "setting": "[7]", "value": "not"}, {"measurement": "inhibition of lactate levels (a measure of glycolysis)", "setting": "[8]", "value": "inhibited lactate levels (a measure of glycolysis) better than the latter"}, {"measurement": "toxicity under hypoxic conditions", "setting": "[9]", "value": "more toxic than 2-DG"}, {"measurement": "induction of GADD154/CHOP", "setting": "[10]", "value": "not"}]}
{"molecule": "O=C[C@@H](F)[C@@H](O)[C@H](O)[C@H](O)CO", "note": "[2-FDM, 2-deoxy-2-fluoro-mannose]", "values": [{"measurement": "cytotoxicity measured by trypan blue exclusion", "setting": "[2]", "value": "toxic"}, {"measurement": "rank order in growth inhibiting and killing SKBR3 cells", "setting": "[2]; normoxia", "value": "2-DG>2-FDM>>>2-FDG"}, {"measurement": "order of potency to inhibit viral glycoprotein synthesis", "setting": "[3]", "value": "2-DG>2-FDM>2-FDG"}, {"measurement": "toxicity in 2-DG sensitive and 2-DG resistant cell types", "setting": "[1]; 4 mM", "value": "caused toxicity in 2-DG sensitive but not 2-DG resistant cell types"}, {"measurement": "tumor cell lines undergoing significant cell death", "setting": "[1]", "value": "6 out of 15"}, {"measurement": "toxicity to select tumor cell types", "setting": "[1]", "value": "toxic to select tumor cell types growing under normoxia"}, {"measurement": "molecular weight of erbB2", "setting": "[5]", "value": "decreased the molecular weight of erbB2"}, {"measurement": "ConA binding of glycoproteins", "setting": "[6]", "value": "decrease ConA binding"}, {"measurement": "expression of chaperones Grp78 and Grp94", "setting": "[7]", "value": "both Grp78 and Grp94 are upregulated"}, {"measurement": "up-regulation of GRP 78 and 94, dose dependence", "setting": "[7]", "value": "up-regulated by 2-DG and 2-FM in a dose-dependent manner"}, {"measurement": "upregulation of the UPR (Grp78, Grp94)", "setting": "[11]; hypoxia model C", "value": "both chaperones are upregulated"}, {"measurement": "upregulation of the UPR (Grp78, Grp94)", "setting": "[11]; hypoxia models A and B", "value": "no significant upregulation of the UPR"}, {"measurement": "induction of GADD154/CHOP", "setting": "[10]", "value": "induced"}]}
{"molecule": "O=C(CO)[C@@H](O)[C@H](O)[C@H](O)CO", "note": "[fructose, reference compound]", "values": [{"measurement": "reversal of 2-DG toxicity by added sugar", "setting": "[2]", "value": "had no effect"}, {"measurement": "reversal of 2-DG toxicity by added sugar", "setting": "[12]", "value": "had no effect"}]}
{"molecule": "C[C@H](O)[C@@H](O)[C@@H](O)[C@H](O)C=O", "note": "[fucose, reference compound]", "values": [{"measurement": "reversal of 2-DG toxicity by added sugar", "setting": "[2]", "value": "had no effect"}, {"measurement": "reversal of 2-DG toxicity by added sugar", "setting": "[12]", "value": "had no effect"}]}
{"molecule": "NC(=O)C(=O)O", "note": "[oxamate, reference compound]", "values": [{"measurement": "cytotoxicity measured by trypan blue exclusion", "setting": "[2]", "value": "not toxic"}]}
{"molecule": "tunicamycin [reference compound]", "values": [{"measurement": "ConA binding of glycoproteins", "setting": "[6]", "value": "decrease ConA binding"}, {"measurement": "expression of chaperones Grp78 and Grp94", "setting": "[7]", "value": "both Grp78 and Grp94 are upregulated"}, {"measurement": "synthesis of chaperones Grp78 and Grp94", "setting": "[11]; all three hypoxia models (positive control)", "value": "induce the synthesis of these chaperones in all three models"}, {"measurement": "induction of GADD154/CHOP", "setting": "[10]", "value": "induced"}]}
